# Test results as given in patent US20230331690A1, “THC DERIVATIVES, ORAL DOSAGE FORMS COMPRISING SAME, USES THEREOF FOR TREATING DISEASES AND DISORDERS AND SYNTHESIS THEREOF” (BAR-ILAN UNIVERSITY, priority 2020, published 2023).
# Where “and” joins values, the source holds several entries; their conditions need not be identical. Identical values can stand only once. Like-named read-outs stand apart in the source and are kept apart here.
# How the values were obtained:
# [1] = Body temperature by rectal thermometer (hypothermia)
# [2] = Persistence over time, brain samples postmortem (Example 18); format: in vivo, mice
# Protocol: (§1) Blood samples from each mouse were collected at each time point for the pharmacokinetics tests. For 6 h after administrating of all tested drugs, and after testing their WRL on the hot plate, half the mice (n=3) of each group were sacrificed, and the liver and brain of each animal were taken for pharmacokinetics tests. From the remaining mice, blood samples were acquired at 12 h after administration for pharmacokinetics tests. At 24 h after drug administration, and after checking the WRL again, second half of each group of mice were sacrificed, and the liver and brain of each animal were taken for pharmacokinetics tests.
# (§2) All the results of the brain and liver samples, which were taken postmortem 6 h or 24 h after administration (n=3) are summarized in Tables 12-13.
# [3] = Pharmacokinetics, liver samples (Example 17); format: in vivo, mice; settings: mouse, liver; for concentration at 24 h: ip; for concentration at 5 h: po
# [4] = Persistence over time, liver samples postmortem (Example 18); format: in vivo, mice; settings: for concentration at 6 h / concentration at 24 h: mouse, liver, oral, read-out: Average results for 3 mice (Table 13, liver); for concentration at 6 h: died at 6 h
# Protocol: as §1, §2
# [5] = Pharmacokinetics, blood samples (Example 17); settings: mouse, blood, ip, Component in the blood, label = analyte
# Protocol: The pharmacokinetics of 9-CD3-(8-D2)-THC compared to natural THC was evaluated using both intraperitoneal i.p. injection and an oral gavage administration for each material. The mice were divided into four groups containing 6 mice (24 mice total). For each group of mice, a blood sample was withdrawn at baseline (t=0), and half-hour intervals (t=0.5, 2 and 5 h) after administration of the drug. Three mice, half of each group, were euthanized with CO2 after 5 h and their organs (brain and liver) were collected. From the second half of each group, another blood sample was withdrawn 24 h after administration, and then these animals were euthanized and the brain and liver were collected for analysis.
# [6] = Persistence over time, blood samples (Example 18); format: in vivo, mice; settings: label = analyte; for Average results, blood samples: 4 mg/kg administration
# Protocol: as §1
# [7] = tested on: mice; assay: Hot plate assay, withdrawal reflex latency (WRL); format: in vivo; settings: for Hot plate Time: per animal
smiles,measurement,setting,value
"CCCCCc1cc(O)c2c(c1)OC(C)(C)[C@@H]1CCC(C)=C[C@@H]21 [THC, Δ-9-tetrahydrocannabinol]",time of strongest effect on body temperature after drug administration,[1]; high concentration of 8 mg/kg oral,0.5 h
same,hypothermia effect (body temperature),[1]; medium concentration of 4 mg/kg oral,very clear hypothermia effect
same,"Body temperature, Avg. change compared to t = 0, at t = 0.5 h","[1]; mice, avg. of 6 mice, 8 mg/kg (groups C+D), t = 0.5 h after administration",−2.1 °C
same,presence in the brain,"[2]; 24 h after administration, highest concentration of 8 mg/kg",absent
same,concentration at 24 h,"[2]; mouse, brain, oral, 4 mg/kg administered, died at 24 h, number in brackets = mice with a value, read-out: Average results for 3 mice - brain samples",14.1 ng/g
same,concentration at 6 h,"[2]; mouse, brain, oral, 8 mg/kg administered, died at 6 h, number in brackets = mice with a value, read-out: Average results for 3 mice - brain samples",16.9 ng/g
same,concentration at 24 h,"[3]; 24 h after i.p. administration, n=3, read-out: average liver concentration",7.62 ng/g
same,concentration at 24 h,"[3]; 24 h after i.p. injection of THC or THC-d5, label = analyte, n=3, read-out: Component in the liver, Average",7.62 ng/mL
same,concentration at 24 h,"[3]; 24 h after i.p. injection of THC or THC-d5, label = analyte, read-out: Component in the liver, mouse 1",5.55 ng/mL
same,concentration at 24 h,"[3]; 24 h after i.p. injection of THC or THC-d5, label = analyte, read-out: Component in the liver, mouse 2",8.46 ng/mL
same,concentration at 24 h,"[3]; 24 h after i.p. injection of THC or THC-d5, label = analyte, read-out: Component in the liver, mouse 3",8.86 ng/mL
same,concentration at 5 h,"[3]; 5 h after oral gavage administration of THC or THC-d5, label = analyte, n=3, read-out: Component in the liver, Average",3.77 ng/mL
same,concentration at 5 h,"[3]; 5 h after oral gavage administration of THC or THC-d5, label = analyte, read-out: Component in the liver, mouse 1",1.41 ng/mL
same,concentration at 5 h,"[3]; 5 h after oral gavage administration of THC or THC-d5, label = analyte, read-out: Component in the liver, mouse 2",4.94 ng/mL
same,concentration at 5 h,"[3]; 5 h after oral gavage administration of THC or THC-d5, label = analyte, read-out: Component in the liver, mouse 3",4.97 ng/mL
same,concentration at 5 h,"[3]; 5 h after oral gavage administration, n=3, read-out: average liver concentration",3.77 ng/g
same,"Average results for 3 mice (Table 13, liver)","[4]; 2 mg/kg administered, died at 24 h, number in brackets = mice with a value",0.74 (2/3) ng/g
same,concentration at 6 h,[4]; 2 mg/kg administered,9.18 ng/g
same,concentration at 6 h,[4]; 4 mg/kg administered,11.4 ng/g
same,concentration at 24 h,"[4]; 4 mg/kg administered, died at 24 h, number in brackets = mice with a value",0.87 ng/g
same,concentration at 6 h,[4]; 8 mg/kg administered,11.1 ng/g
same,concentration at 24 h,"[4]; 8 mg/kg administered, died at 24 h, number in brackets = mice with a value",3.52 ng/g
same,concentration at 0.5 h,"[5]; Average, 0.5 h after i.p. injection of THC or THC-d5, n=6 (THC-d5 n=5)",63.4 ng/mL
same,concentration at 0.5 h,"[5]; mouse 1, 0.5 h after i.p. injection of THC or THC-d5",76.8 ng/mL
same,concentration at 0.5 h,"[5]; mouse 2, 0.5 h after i.p. injection of THC or THC-d5",81.9 ng/mL
same,concentration at 0.5 h,"[5]; mouse 3, 0.5 h after i.p. injection of THC or THC-d5",49.5 ng/mL
same,concentration at 0.5 h,"[5]; mouse 4, 0.5 h after i.p. injection of THC or THC-d5",64.4 ng/mL
same,concentration at 0.5 h,"[5]; mouse 5, 0.5 h after i.p. injection of THC or THC-d5",53.8 ng/mL
same,concentration at 0.5 h,"[5]; mouse 6, 0.5 h after i.p. injection of THC or THC-d5",53.9 ng/mL
same,"Average results, blood samples",[6]; Time 3 h,2.78 (4/6) ng/mL
same,"Average results, blood samples",[6]; Time 6 h,2.44 (5/5) ng/mL
same,"Average results, blood samples",[6]; Time 24 h (3 mice),0.25 (2/2) ng/mL
same,concentration at 0.5 h,"[6]; mouse, blood, oral, 4 mg/kg administration of THC or THC-d5, Time 0.5 h",10.5 ng/mL
same,concentration at 0.5 h,"[6]; mouse, blood, oral, 8 mg/kg administration of THC or THC-d5, Time 0.5 h",14.3 ng/mL
same,concentration at 3 h,"[6]; mouse, blood, oral, 8 mg/kg administration, Time 3 h",6.53 ng/mL
same,concentration at 6 h,"[6]; mouse, blood, oral, 8 mg/kg administration, Time 6 h",4.14 ng/mL
same,concentration at 12 h,"[6]; mouse, blood, oral, 8 mg/kg administration, Time 12 h (3 mice)",0.81 ng/mL
same,concentration at 24 h,"[6]; mouse, blood, oral, 8 mg/kg administration, Time 24 h (3 mice)",0.26 ng/mL
same,Hot plate Avg. 6 mice,"[7]; 2 mg/Kg oral, t = 0.5 h",7.38 s
same,Hot plate Time,"[7]; 2 mg/Kg oral, t = 0.5 h",5.7 s and 11.5 s and 8.9 s and 9.2 s and 3.2 s and 5.8 s
same,Hot plate Avg. 6 mice,"[7]; 2 mg/Kg oral, t = 3 h",9.77 s
same,Hot plate Time,"[7]; 2 mg/Kg oral, t = 3 h",9.5 s and 8.5 s and 18.0 s and 10.4 s and 5.3 s and 6.9 s
same,Hot plate Avg. 6 mice,"[7]; 2 mg/Kg oral, t = 6 h",9.77 s
same,Hot plate Time,"[7]; 2 mg/Kg oral, t = 6 h",13.5 s and 6.3 s and 12.5 s and 8.7 s and 6.6 s and 11.0 s
same,Hot plate Avg. 3 mice,"[7]; 2 mg/Kg oral, t = 24 h",6.53 s
same,Hot plate Time,"[7]; 2 mg/Kg oral, t = 24 h",7.8 s and 7.4 s and 4.4 s
same,decrease in the WRL compared to baseline,"[7]; 2 mg/kg, 0.5 h",1%
same,change in average WRL compared to baseline,"[7]; 2 mg/kg, 3 h",+31%
same,change in average WRL compared to baseline,"[7]; 2 mg/kg, 6 h",+31%
same,Hot plate Avg. 6 mice,"[7]; 4 mg/Kg oral, t = 0.5 h",12.48 s
same,Hot plate Time,"[7]; 4 mg/Kg oral, t = 0.5 h",11.3 sec. (2×) and 19.8 sec. and 6.3 sec. and 14.0 sec. and 12.2 sec.
same,Hot plate Avg. 6 mice,"[7]; 4 mg/Kg oral, t = 3 h",11.00 s
same,Hot plate Time,"[7]; 4 mg/Kg oral, t = 3 h",17.3 s and 8.0 s and 9.3 s and 6.9 s and 13.9 s and 10.6 s
same,Hot plate Avg. 6 mice,"[7]; 4 mg/Kg oral, t = 6 h",8.92 s
same,Hot plate Time,"[7]; 4 mg/Kg oral, t = 6 h",12.1 sec. and 2.4 sec. and 3.0 sec. and 14.0 sec. (2×) and 8.0 sec.
same,Hot plate Avg. 3 mice,"[7]; 4 mg/Kg oral, t = 24 h",10.43 s
same,Hot plate Time,"[7]; 4 mg/Kg oral, t = 24 h",13.7 s and 12.8 s and 4.8 s
same,increase in the WRL compared to baseline,"[7]; 4 mg/kg, 0.5 h",23%
same,change in average WRL compared to baseline,"[7]; 4 mg/kg, 3 h",+8%
same,change in average WRL compared to baseline,"[7]; 4 mg/kg, 6 h",−12%
same,Hot plate Avg. 6 mice,"[7]; 8 mg/Kg oral, t = 0.5 h",13.22 s
same,Hot plate Time,"[7]; 8 mg/Kg oral, t = 0.5 h, cut-off 30 s",15.2 s and 11.1 s and 14.2 s and 6.7 s and 19.6 s and 12.5 s
same,Hot plate Avg. 6 mice,"[7]; 8 mg/Kg oral, t = 3 h",12.45 s
same,Hot plate Time,"[7]; 8 mg/Kg oral, t = 3 h, cut-off 30 s",21.6 s and 9.0 s and 9.8 s and 9.5 s and 12.5 s and 12.3 s
same,Hot plate Avg. 6 mice,"[7]; 8 mg/Kg oral, t = 6 h",12.03 s
same,Hot plate Time,"[7]; 8 mg/Kg oral, t = 6 h",13.2 s and 9.2 s and 6.8 s and 16.7 s and 17.0 s and 9.3 s
same,Hot plate Avg. 3 mice,"[7]; 8 mg/Kg oral, t = 24 h",10.27 s
same,Hot plate Time,"[7]; 8 mg/Kg oral, t = 24 h, cut-off 30 s",8.1 s and 15.7 s and 7.0 s
same,average increase in WRL compared to baseline (t=0),"[7]; 8 mg/kg, 0.5 h",67.3%
same,change in average WRL compared to t=0 at baseline,"[7]; 8 mg/kg, 3 h",+57.5%
same,change in average WRL compared to baseline,"[7]; 8 mg/kg, 6 h",+52%
